Data published in patent US9951292B2, “Grease composition” (TOTAL MARKETING SERVICES, priority 2011, dated 2018).

Experiments:
algae and daphnia = assay: Aquatic toxicity to algae and daphnia according to standards OECD 201 and 202; format: in vivo
Source text: Preferably, the grease compositions according to the invention contain additives which are not hazardous to the environment and human health. Preferably, the grease compositions according to the invention are free from organic halogenated compounds, nitrite type compounds, metals or metallic compounds other than sodium, potassium, magnesium, calcium, lithium and/or aluminium. Preferably, the grease compositions according to the invention are not toxic to the aquatic environment. In particular the grease compositions according to the invention have an aquatic toxicity to algae, daphnia and fish of at least 1000 mg/l according to standards OECD 201, 202 and 203.
Similarly, the main constituents of the grease, i.e. those present at more than 5% by mass with respect to the total mass of the grease composition, such as the base oil and the soap, have an aquatic toxicity to algae and daphnia of at least 100 mg/l according to standards OECD 201 and 202.
Similarly, when a constituent has an aquatic toxicity to algae and daphnia of at least 100 mg/l according to standards OECD 201 and 202 (category D), said constituent can be present in the grease at any concentration. The grease compositions according to the invention have a concentration by mass of constituents having an aquatic toxicity to algae and daphnia comprised between 10 mg/l and 100 mg/l according to standards OECD 201 and 202 (category E), less than or equal to 25%. The grease compositions according to the invention have a concentration by mass of constituents having an aquatic toxicity to algae and daphnia comprised between 1 mg/l and 10 mg/l according to standards OECD 201 and 202 (category F), less than or equal to 2%, preferably less than or equal to 1%. This only concerns the constituents of the grease the concentration by mass in the grease of which is greater than or equal to 0.1%.

[1] = Biodegradability according to standard OECD 301B
Source text: This only concerns the constituents of the grease the concentration by mass in the grease of which is greater than or equal to 0.1%.

Row | Molecule | aquatic toxicity to algae and daphnia (algae and daphnia; OECD 201 and 202) | aquatic toxicity to algae and daphnia, category (algae and daphnia; OECD 201 and 202) | aquatic toxicity to algae and daphnia (algae and daphnia; in vivo) | biodegradability [1]
1 | CCCCCCC(O)CCCCCCCCCCC(=O)[O-].[Li+] (centres unmarked) [lithium 12-hydroxystearate] | over 100 mg/l | D (aquatic toxicity to algae and daphnia of at least 100 mg/l according to standards OECD 201 and 202 (category D)) | – | –
2 | CCCCCCCCCCCCCCCCCCOC(=O)CCc1cc(C(C)(C)C)c(O)c(C(C)(C)C)c1 [antioxidant 2, Octadecyl 3-(3,5-ditertiobutyl-4-hydroxyphenyl) propanoate] | – | – | over 100 mg/l | –
3 | Tolyltriazole [corrosion inhibitor 2] | – | – | 1 to 10 mg/L | 4%
